Measured values as given in patent publication US20210007356A1, “IMIDE DERIVATIVE AND FUNGICIDE CONTAINING SAID DERIVATIVE AS ACTIVE INGREDIENT” (HOKKO CHEMICAL INDUSTRY CO., LTD., priority 2018, published 2021).
Like-named read-outs stand apart in the source and are kept apart here.

What was measured:
[1] = tested on: barley powdery mildew fungus (Erysiphe graminis); test: Test Example 2: control effect against barley powdery mildew by foliage application; assay type: in vivo; details: wettable powder diluted to 100 ppm, 10 mL per pot foliage spray on barley; inoculated day after; 7 days after inoculation
[2] = tested on: rice blast fungus (Pyricularia grisea); assay type: in vivo; details: flowable diluted to 100 ppm, 10 mL per pot foliage spray on paddy rice; inoculated day after; 7 days after inoculation
[3] = tested on: rice blast fungus (Pyricularia grisea); assay type: in vivo; details: flowable 5,000 ppm, 50 mL irrigation of nursery box, paddy rice; inoculated after 3 weeks; 7 days after inoculation
[4] = tested on: rice blast fungus (Pyricularia grisea); assay type: in vivo; details: 5 g of granule on nursery box, paddy rice; inoculated after 3 weeks; 7 days after inoculation
[5] = tested on: rice blast fungus (Pyricularia grisea); assay type: in vivo; details: flowable 1,000 ppm, 1 mL dripped in paddy water, inoculated after 1 week, 7 days after inoculation
[6] = tested on: rice sheath blight fungus (Thanatephorus cucumeris); test: Test Example 8: control effect against rice sheath blight by box treatment (granule); details: 5 g of granule on nursery box, paddy rice; inoculated after 3 weeks; 7 days after inoculation
From the text: (§1) Control value (%)=[1−(lesion height in sprayed plot/lesion height in unsprayed plot)]×100 (d)
From the top of a nursery box, 5 g of a granule prepared according to Formulation Example-4 was applied to a 2.5-leaf-stage paddy rice (variety: Asahi) seedling raised using a nursery box ( 1/10 the area of standard nursery box in size: 12 cm×15 cm×height 4 cm) within a greenhouse. The formulation-treated paddy rice seedling was immediately transplanted at 5 seedlings/pot into a pot ( 1/10000 are in size) filled with paddy soil (flooded). After growing for 3 weeks within a greenhouse, a culture of rice sheath blight fungus (Thanatephorus cucumeris) grown in advance on a rice straw medium was inoculated into the root of the formulation-treated paddy rice, and disease development was promoted in an artificial weather chamber at 26° C. (relative humidity=100%). Seven days after the inoculation, the rice sheath blight lesion height (height from the root) was examined, and the control value (%) was calculated according to formula (d). […] This test was performed with three replications, each consisting of one plot and one pot, per one formulation plot, and its average evaluation value of control effect was determined.

[7] = tested on: rice sheath blight fungus (Thanatephorus cucumeris); test: Test Example 6: control effect against rice sheath blight by box treatment (flowable formulation); details: flowable 5,000 ppm, 50 mL irrigation of nursery box, paddy rice; inoculated after 3 weeks; 7 days after inoculation
[8] = tested on: rice sheath blight fungus (Thanatephorus cucumeris); test: Test Example 10: control effect against rice sheath blight by water surface application (flowable formulation); details: flowable 1,000 ppm, 1 mL dripped in paddy water, inoculated after 1 week, 7 days after inoculation
Method: as §1
By dripping treatment in paddy water, 1 mL of a diluted solution (1,000 ppm) of a flowable prepared according to Formulation Example-3 was applied to a 5-leaf-stage paddy rice (variety: Asahi) seedling (5 seedlings/stub, one stub/pot) grown in a pot ( 1/10000 are in size) filled with paddy soil (flooded) within a greenhouse. After growing for 1 week within a greenhouse, a culture of rice sheath blight fungus (Thanatephorus cucumeris) grown in advance on a rice straw medium was inoculated into the root of the formulation-treated paddy rice, and disease development was promoted in an artificial weather chamber at 26° C. (relative humidity=100%). Seven days after the inoculation, the rice sheath blight lesion height (height from the root) was examined, and the control value (%) was calculated according to formula (d). […] This test was performed with three replications, each consisting of one plot and one pot, per one formulation plot, and its average evaluation value of control effect was determined.

SMILES | evaluation value of control effect (from control value, lesion area percentage) [1] | evaluation value of control effect (from control value, number of lesions) [2] | evaluation value of control effect (from control value, number of lesions) [3] | evaluation value of control effect (from control value, number of lesions) [4] | evaluation value of control effect (from control value, number of lesions) [5] | evaluation value of control effect (from control value, lesion height) [6] | evaluation value of control effect (from control value, lesion height) [7] | evaluation value of control effect (from control value, lesion height) [8]
Cc1nc(C(F)F)c(C(=O)N(C(=O)c2cn(C)nc2C(F)F)c2ccccc2CCC(C)C)s1 [1-313] | 4 | 4 | 5 | 5 | 5 | 5 | 5 | 5
Cn1cc(C(=O)N(C(=O)c2scnc2C(F)F)c2ccccc2-c2cc(F)c(F)c(F)c2)c(C(F)F)n1 [1-370] | 4 | 4 | 5 | 5 | 5 | 5 | 5 | 5
Cn1cc(C(=O)N(C(=O)c2onc(Cl)c2Cl)c2ccccc2-c2cc(F)c(F)c(F)c2)c(C(F)F)n1 [1-374] | 4 | 4 | 5 | 5 | 5 | 5 | 5 | 5
Cc1nn(C)c(F)c1C(=O)N(C(=O)c1cc(Cl)no1)c1ccccc1C(C)CC(C)C (stereo not shown) [1-376] | 4 | 4 | 5 | 5 | 5 | 5 | 5 | 5
CC(C)CC(C)c1sccc1N(C(=O)c1cn(C)nc1C(F)F)C(=O)c1snc(Cl)c1Cl (stereo not shown) [5-5] | 5 | 4 | 5 | 5 | 5 | 5 | 5 | 5
Cc1nnsc1C(=O)N(C(=O)c1cn(C)nc1C(F)F)c1ccsc1C(C)CC(C)C (stereo not shown) [5-23] | 5 | 4 | 5 | 5 | 5 | 5 | 5 | 5
Cc1cc(C(=O)N(C(=O)c2scnc2C(F)F)c2ccccc2C(C)CC(C)C)sn1 (stereo not shown) [7-134] | 4 | 4 | 5 | 5 | 5 | 5 | 5 | 5
Cc1nsc(C(=O)N(C(=O)c2scnc2C(F)F)c2ccccc2C(C)CC(C)C)c1Cl (stereo not shown) [7-141] | 4 | 4 | 5 | 5 | 5 | 5 | 5 | 5
CCc1nc(C(F)F)c(C(=O)N(C(=O)c2sc(C)nc2C(F)F)c2ccccc2C(C)CC(C)C)s1 (stereo not shown) [7-216] | 4 | 4 | 5 | 5 | 5 | 5 | 5 | 5
Cc1nc(C(F)F)c(C(=O)N(C(=O)c2sc(C)nc2C(F)(F)F)c2ccccc2C(C)CC(C)C)s1 (stereo not shown) [7-226] | 4 | 4 | 5 | 5 | 5 | 5 | 5 | 5
Cc1nc(C(F)F)c(C(=O)N(C(=O)c2sc(C)nc2C(F)F)c2ccccc2C(C)CC(C)C)s1 (stereo not shown) [7-238, 4-Difluoromethyl-N-{4-(difluoromethyl)-2-methyl-thiazole-5-carbonyl}-N-{2-(1,3-dimethylbutyl)phenyl}-2-methyl-thiazole-5-carboxamide] | 5 | 4 | 5 | 5 | 5 | 5 | 5 | 5
Cc1nc(C(F)F)c(C(=O)N(C(=O)c2scnc2C(F)F)c2ccccc2C(C)CC(C)C)s1 (stereo not shown) [7-262] | 4 | 4 | 5 | 5 | 5 | 5 | 5 | 5
CC(C)CC(C)c1ccccc1N(C(=O)c1cccnc1Br)C(=O)c1snc(Cl)c1Cl (stereo not shown) [13-54] | 4 | 4 | 5 | 5 | 5 | 5 | 5 | 5
CC(C)CC(C)c1ccccc1N(C(=O)c1cc(F)nc(F)c1)C(=O)c1cccnc1C(F)F (stereo not shown) [13-58] | 5 | 4 | 5 | 5 | 5 | 5 | 5 | 5
Cc1nnsc1C(=O)N(C(=O)c1cn(C)nc1C(F)F)c1cccc2c1C(C)OC2(C)C (stereo not shown) [25-56] | 4 | 4 | 5 | 5 | 5 | 5 | 5 | 5
CC1OC(C)(C)c2cccc(N(C(=O)c3cn(C)nc3C(F)F)C(=O)c3snnc3C(F)F)c21 (stereo not shown) [25-68] | 4 | 4 | 5 | 5 | 5 | 5 | 5 | 5
CC1OC(C)(C)c2cccc(N(C(=O)c3cn(C)nc3C(F)F)C(=O)c3scnc3C(F)F)c21 (stereo not shown) [25-110] | 4 | 4 | 5 | 5 | 5 | 5 | 5 | 5
